# Ends that are not written are not given here. code X = not defined here
# Test system: HLA-DR4 transgenic mice
# Experiment: hTRT766 immunization of HLA-DR4 transgenic mice, IFN-γ ELISPOT of splenocytes
# Type: in vivo
# Description: IFN-γ ELISPOT assay was used to analyze peptide-specific T cell responses by determining the frequency of Th precursors specific for the peptide. Mice were sacrificed […] after the last immunization and splenocytes were obtained for assessing IFN-γ production.
# Briefly, 96-well MultiScreen-IP plates (Millipore Corporation, Bedford, Mass.) were coated with 100 ul/well capture mAb against mouse IFN-γ (AN-18, Mabtech Inc, Cincinnati, Ohio) at a concentration of 10 μg/ml and incubated overnight at 4° C. The plates were washed 4 times with PBS, then blocked with RPMI 1640 plus 10% FBS for 2 hours at 37° C. After washing, freshly isolated splenocytes were plated at 2×10^5cells/well in RPMI 1640 with 10% FBS, in the presence or absence of peptide hTRT766 (20 μg/ml), recombinant hTRT proteins (20 μg/ml) or hTRT-positive NA-6-Mel (ATCC) tumor lysates (50 ul/well). Tumor cell lysates were prepared by three freeze-thaw cycles of 5×10^7 tumor cells resuspended in 5 ml of RPMI 1640 with 10% FBS. Then the cells were centrifuged at 15,000 g for 30 minutes at 4° C. Supernatant was recovered, aliquoted and stored at −80° C. for later use, as described previously [Schroers, 2002 #116]. After 20 hours of cell culture in the incubator, the cells were removed by washing 3 times with PBS and 4 times with PBS/Tween20 (0.05%). Biotinylated anti-mouse IFN-γ antibody (R4-6A2, Mabtech Inc, Cincinnati, Ohio), diluted to 1 μg/ml in PBS/Tween20 containing 0.5% bovine serum albumin, was added and incubated for 2 hours at 37° C. The plates were then washed 6 times with PBS/Tween20 (0.05%) and subsequently avidin-peroxidase-complex (Vector Laboratories, Burlingame, Calif.) was added and incubated for 1 hour at room temperature, and removed by washing 3 times with PBS and PBS/Tween20 (0.05%). The color of the plates was developed by adding HRP substrate 3-amino-9-ethylcarbozole (Sigma, St. Louis, Mo.). The plates were then washed with tap water, and air dried in dark. The plates were evaluated using an automated ELISPOT reader (Zellnet Consulting Inc, New York, N.Y.).
# To further assess the therapeutic potential of hTRT766, HLA-DR4 transgenic mice (Congia, 1998; Sonderstrup, 1998; Sonderstrup, 1999) were used to determine whether immunization with the peptide induces a CD4+ Th response specific not only for the peptide, but also for the hTRT protein.
# Briefly, human HLA DR4 transgenic mice (HLA-DRB1*0401), which are murine class II-deficient and transduced with human CD4 molecule, were generated. [Congia, 1998; Sonderstrup, 1998; Sonderstrup, 1999). The transgenic mice were successfully used to identify human class-II-restricted epitopes and to study immune responses (Congia, 1998; Sonderstrup, 1998; Sonderstrup, 1999; Geluk, 1998). HLA DR4 expression on the transgenic mice was analyzed by flow cytometry. Male DR4 transgenic mice 6- to 10-week-old were used for experiment. The transgenic mice were immunized twice at one week interval with 100 μg of hTRT766 peptide emulsified in complete Freunds adjuvant (CFA) (final volume, 100 μl) and administered subcutaneously (s.c.) into the rear back. Control group mice were injected with phosphate-buffered saline (PBS) emulsified in CFA.
# The spleen cells were isolated and stained with FITC-conjugated mouse anti-human HLA-DR, PE-conjugated mouse anti-human CD4 or FITC-conjugated rat anti-mouse CD4 (BD PharMingen, San Diego, Calif.). Flow cytometric analysis determined that these transgenic mice were human HLA-DR, CD4 positive and mouse CD4 negative. Ten days after the last immunization, the transgenic mice were sacrificed and the responses of their splenocytes to peptides, recombinant hTRT protein and hTRT-positive tumor cell were examined by using IFN-γ ELISPOT assays. The splenocytes of hTRT766-immunized mice responded strongly to the hTRT766 stimulation, producing IFN-γ at a frequency of 72 spots per million of splenocytes (medium control, 10/106). […]
sequence,measurement,setting,value
XLTDLQPYMRQFVAHL ({code X}-LTDLQPYMRQFVAHL; not fully specified; reading uncertain) [hTRT766],response of splenocytes of immunized mice to irrelevant peptide hTRT854,"100 μg peptide in CFA s.c. twice, IFN-γ ELISPOT",did not respond
same,IFN-γ ELISPOT frequency of splenocytes of immunized mice,"100 μg peptide in CFA s.c. twice, restimulated with hTRT766 peptide 20 μg/ml",72 spots per million of splenocytes
same,IFN-γ ELISPOT frequency of splenocytes of immunized mice,restimulated with recombinant hTRT protein 20 μg/ml,41 spots per million cells
same,IFN-γ ELISPOT frequency of splenocytes of immunized mice,"stimulated with hTRT-negative GM847 tumor lysates, background frequency",10/106
same,IFN-γ ELISPOT frequency of splenocytes of immunized mice,stimulated with hTRT-positive NA-6-Mel cell lysates,38 spots per million cells
same,IFN-γ ELISPOT frequency of splenocytes of immunized mice,"stimulated with irrelevant CEA-Fc proteins, background frequency",10/106
